Measurements taken from PubChem BioAssay AID651817 (Broad Institute, 2012).
Activity calls are given as the source filed them.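 How the source made its calls: active means compound whose fitted luminescence drop, meaning cytotoxicity, reaches half effect at most twice its top valid tested dose; inconclusive means flat curve with a moderate drop, or an unreliable fit; inactive means rise instead of drop, flat response, or weaker potency.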

Test: NIH/3T3 fibroblast cytotoxicity, dose response, cytotoxicity control for T. cruzi growth inhibitor project, cell-based, cherry-pick samples, set 2 (AID 651817)
Settings: NIH/3T3 viability, ATP luminescence (CellTiter-Glo), 90 h; at 4.2 µM (top of the series)

SMILES	activity change, negative = cytotoxicity
C[C@@H]1CN([C@H](C)CO)C(=O)c2cccc(NC(=O)Nc3ccc(C(F)(F)F)cc3)c2O[C@@H]1CN(C)Cc1ccc(Cl)c(Cl)c1	37.5% (inactive)

Same assay, conditions: NIH/3T3 viability, ATP luminescence (CellTiter-Glo), 90 h; at 19.5 µM (top of the series)

SMILES	activity change, negative = cytotoxicity
Cc1ccc(S(=O)(=O)N(C)C[C@H]2Oc3c(NC(=O)c4nc5ccccc5s4)cccc3C(=O)N([C@H](C)CO)C[C@H]2C)cc1	14.1% (inactive)
C[C@@H]1CN([C@H](C)CO)C(=O)c2cccc(NC(=O)c3nc4ccccc4s3)c2O[C@H]1CN(C)S(=O)(=O)c1ccc(Cl)cc1	-10.1% (inactive)
COc1ccc(CN(C)C[C@@H]2Oc3c(NC(=O)c4ccncc4)cccc3C(=O)N([C@H](C)CO)C[C@H]2C)cc1	-20.7% (inactive)
C[C@H]1CN([C@@H](C)CO)C(=O)c2cccc(NC(=O)c3ccncc3)c2O[C@H]1CN(C)CC1CCCCC1	36.4% (inactive)
C[C@@H]1CN([C@@H](C)CO)C(=O)c2cccc(NC(=O)c3ccncc3)c2O[C@@H]1CN(C)Cc1ccc(Cl)c(Cl)c1	33% (inactive)
COc1ccc(CN(C)C[C@H]2Oc3c(NC(=O)Nc4ccc(C(F)(F)F)cc4)cccc3C(=O)N([C@H](C)CO)C[C@@H]2C)cc1	-1.02% (inactive)
C[C@@H]1CN([C@@H](C)CO)C(=O)c2cccc(NC(=O)c3nc4ccccc4s3)c2O[C@@H]1CN(C)Cc1ccc2c(c1)OCO2	0.748% (inactive)
COc1ccc(S(=O)(=O)Nc2ccc3c(c2)CC(=O)N([C@H](C)CO)C[C@@H](C)[C@H](CN(C)Cc2ccc4c(c2)OCO4)O3)cc1	4.02% (inactive)
C[C@@H]1CN([C@H](C)CO)C(=O)c2cccc(NC(=O)c3nc4ccccc4s3)c2O[C@@H]1CN(C)Cc1ccc2c(c1)OCO2	-22.1% (inactive)
C[C@@H]1CN([C@H](C)CO)C(=O)c2cccc(NC(=O)c3ccncc3)c2O[C@H]1CN(C)CC1CCCCC1	-12.3% (inactive)
C[C@H](CO)N1C[C@H](C)[C@@H](CN(C)S(=O)(=O)c2ccc(Cl)cc2)Oc2c(NC(=O)c3nc4ccccc4s3)cccc2C1=O	14.7% (inactive)
COc1ccc(CN(C)C[C@@H]2Oc3c(NC(=O)c4ccncc4)cccc3C(=O)N([C@@H](C)CO)C[C@H]2C)cc1	-18.8% (inactive)
C[C@H](CO)N1C[C@H](C)[C@@H](CN(C)CC2CCCCC2)Oc2c(NC(=O)c3ccncc3)cccc2C1=O	-21.4% (inactive)
Cc1noc(C)c1NC(=O)Nc1cccc2c1O[C@H](CN(C)S(C)(=O)=O)[C@H](C)CN([C@H](C)CO)C2=O	-14.2% (inactive)
COc1ccc(CN(C)C[C@H]2Oc3c(NC(=O)Nc4ccc(C(F)(F)F)cc4)cccc3C(=O)N([C@@H](C)CO)C[C@H]2C)cc1	-11.1% (inactive)
C[C@H](CO)N1C[C@H](C)[C@H](CN(C)S(=O)(=O)c2ccc(F)cc2)Oc2c(NC(=O)NC3CCCCC3)cccc2C1=O	-54.5% (inactive)
C[C@@H]1CN([C@H](C)CO)C(=O)Cc2cc(NS(=O)(=O)c3ccc(F)cc3)ccc2O[C@@H]1CN(C)Cc1ccc(Cl)c(Cl)c1	-49.8% (inactive)
C[C@H](CO)N1C[C@H](C)[C@H](CN(C)Cc2ccc(Oc3ccccc3)cc2)Oc2c(NC(=O)c3ccncc3)cccc2C1=O	-12.3% (inactive)
C[C@@H]1CN([C@H](C)CO)C(=O)c2cccc(NC(=O)c3ccncc3)c2O[C@@H]1CN(C)Cc1ccc2c(c1)OCO2	-25.6% (inactive)
Cc1ccc(S(=O)(=O)N(C)C[C@H]2Oc3ccc(NS(=O)(=O)c4ccc(Cl)cc4)cc3CC(=O)N([C@H](C)CO)C[C@@H]2C)cc1	3.37% (inactive)
C[C@H]1CN([C@@H](C)CO)C(=O)c2cccc(NC(=O)c3nc4ccccc4s3)c2O[C@H]1CN(C)Cc1ccc2c(c1)OCO2	-36.3% (inactive)
